Measurements reported in patent US20240018123A1, “COMPOUND FOR INHIBITING OR DISINTEGRATING ANDROGEN RECEPTOR, AND PHARMACEUTICAL USE THEREOF” (KOREA RESEARCH INSTITUTE OF CHEMICAL TECHNOLOGY, priority 2020, published 2024).

The compounds below were run against T1, Androgen receptor (AR) (Homo sapiens, UniProt P10275, T878A) (assay: Assessment of AR proteolytic activity (Western blotting of LNCap cell lysates)). Conditions: 24 hours of treatment, Western blotting quantified with Image J.
T1 construct: 5.5×10^5 LNCap cells were injected into each well of a 6-well plate; endogenous in cells; host or cells: LNCaP
T1 sequence (P10275 1-920 T878A): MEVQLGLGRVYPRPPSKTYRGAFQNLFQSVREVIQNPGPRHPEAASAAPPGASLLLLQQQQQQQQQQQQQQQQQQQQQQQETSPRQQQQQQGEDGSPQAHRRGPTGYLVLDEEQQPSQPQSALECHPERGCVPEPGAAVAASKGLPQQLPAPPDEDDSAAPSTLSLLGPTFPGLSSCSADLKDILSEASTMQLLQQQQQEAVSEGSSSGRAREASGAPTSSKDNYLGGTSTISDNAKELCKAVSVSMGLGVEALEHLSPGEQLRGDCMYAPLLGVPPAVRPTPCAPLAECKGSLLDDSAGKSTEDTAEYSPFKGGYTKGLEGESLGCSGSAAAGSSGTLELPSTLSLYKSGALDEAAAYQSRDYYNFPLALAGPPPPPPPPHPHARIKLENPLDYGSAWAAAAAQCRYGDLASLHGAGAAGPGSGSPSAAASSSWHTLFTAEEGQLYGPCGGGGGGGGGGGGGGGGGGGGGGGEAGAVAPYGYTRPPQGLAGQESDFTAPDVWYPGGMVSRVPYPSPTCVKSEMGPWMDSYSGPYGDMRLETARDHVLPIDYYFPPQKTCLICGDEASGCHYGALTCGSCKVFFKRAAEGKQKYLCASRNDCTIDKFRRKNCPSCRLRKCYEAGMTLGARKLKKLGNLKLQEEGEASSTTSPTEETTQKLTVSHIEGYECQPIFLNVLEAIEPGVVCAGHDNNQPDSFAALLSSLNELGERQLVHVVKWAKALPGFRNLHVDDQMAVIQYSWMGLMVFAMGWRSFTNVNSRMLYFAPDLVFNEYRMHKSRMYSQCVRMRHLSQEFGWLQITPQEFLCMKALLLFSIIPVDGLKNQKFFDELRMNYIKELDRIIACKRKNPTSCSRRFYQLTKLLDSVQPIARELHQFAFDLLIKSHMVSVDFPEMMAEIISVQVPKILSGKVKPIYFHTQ
Assay type: cell-based
Procedure: Assessment of AR Proteolytic Activity
Androgen receptor (AR) proteolytic activity of the compound according to the present invention was evaluated as follows: Specifically, 5.5×10^5 LNCap cells were injected into each well of a 6-well plate. […] After 24 hours of treatment, cells were collected and lysed using RIPA Lysis buffer (50 mM Tris-HCl, pH7.5, 150 mM NaCl, 1% Triton X-100, 2 mM EDTA, 0.1% SDS, 0.5% sodium deoxycholate and protease inhibitor cocktail) to make cell lysates. Western blotting was performed, and the results were quantified using Image J program.

Question: How did the “Degradation (1 μM treated in LNCaP, % AR remaining)” value turn out when `CC1(C)C(NC(=O)c2ccc(N3CCC4(CC3)CN(CC3CCN(c5ccc6c(=O)n(C7CCC(=O)NC7=O)nnc6c5)CC3)C4)nc2)C(C)(C)C1Oc1ccc(C#N)c(Cl)c1` (stereo not shown) [Example 173, N-((1r,3r)-3-(3-chloro-4-cyanophenoxy)-2,2,4,4-tetramethylcyclobutyl)-6-(2-((1-(3-(2,6-dioxopiperidin-3-yl)-4-oxo-3,4-dihydrobenzo[d][1,2,3]triazin-7-yl)piperidin-4-yl)methyl)-2,7-diazaspiro[3.5]nonan-7-yl)nicotinamide] was run?
Answer: 9%

Question: With `N#Cc1ccc(O[C@H]2CC[C@@H](NC(=O)c3ccc(N4CCN(CCCOc5ccc6nnn(C7CCC(=O)NC7=O)c(=O)c6c5)CC4)nc3)CC2)cc1Cl` (stereo partly shown) [Example 161, N-((1r,4r)-4-(3-chloro-4-cyanophenoxy)cyclohexyl)-6-(4-(3-((3-(2,6-dioxopiperidin-3-yl)-4-oxo-3,4-dihydrobenzo[d][1,2,3]triazin-6-yl)oxy)propyl)piperazin-1-yl)nicotinamide] as the compound, how does the “Degradation (1 μM treated in LNCaP, % AR remaining)” value read?
Answer: 36%

Question: `CC1(C)C(NC(=O)c2ccc(N3CCC(CN4CCN(c5ccc6nnn(C7CCC(=O)NC7=O)c(=O)c6c5)CC4)CC3)nc2)C(C)(C)C1Oc1ccc(C#N)c(Cl)c1` (stereo not shown) [Example 162, N-((1r,3r)-3-(3-chloro-4-cyanophenoxy)-2,2,4,4-tetramethylcyclobutyl)-6-(4-((4-(3-(2,6-dioxopiperidin-3-yl)-4-oxo-3,4-dihydrobenzo[d][1,2,3]triazin-6-yl)piperazin-1-yl)methyl)piperidin-1-yl)nicotinamide] was tested. Which “Degradation (1 μM treated in LNCaP, % AR remaining)” value did it give?
Answer: 30%

Question: How did the “Degradation (1 μM treated in LNCaP, % AR remaining)” value turn out when `CC1(C)C(NC(=O)c2ccc(N3CCC(CN4CCN(C5CCN(c6ccc7nnn(C8CCC(=O)NC8=O)c(=O)c7c6)CC5)CC4)CC3)nc2)C(C)(C)C1Oc1ccc(C#N)c(Cl)c1` (stereo not shown) [Example 194, N-((1r,3r)-3-(3-chloro-4-cyanophenoxy)-2,2,4,4-tetramethylcyclobutyl)-6-(4-((4-(1-(3-(2,6-dioxopiperidin-3-yl)-4-oxo-3,4-dihydrobenzo[d][1,2,3]triazin-6-yl)piperidin-4-yl)piperazin-1-yl)methyl)piperidin-1-yl)nicotinamide] was run?
Answer: 9%

Question: `CC1(C)[C@H](NC(=O)c2ccc(N3CC[C@H](CN4CC5(CCN(c6ccc7c(=O)n(C8CCC(=O)NC8=O)nnc7c6)CC5)C4)C3)nc2)C(C)(C)[C@H]1Oc1ccc(C#N)c(Cl)c1` (stereo partly drawn) [Example 185, N-((1r,3R)-3-(3-chloro-4-cyanophenoxy)-2,2,4,4-tetramethylcyclobutyl)-6-((3R)-3-((7-(3-(2,6-dioxopiperidin-3-yl)-4-oxo-3,4-dihydrobenzo[d][1,2,3]triazin-7-yl)-2,7-diazaspiro[3.5]nonan-2-yl)methyl)pyrrolidin-1-yl)nicotinamide] was tested. Which “Degradation (1 μM treated in LNCaP, % AR remaining)” value did it give?
Answer: 10%

Question: How did the “Degradation (1 μM treated in LNCaP, % AR remaining)” value turn out when `CC1(C)C(NC(=O)c2ccc(N3CCC4(CC3)CN(CC3CN(c5ccc6nnn(C7CCC(=O)NC7=O)c(=O)c6c5)C3)C4)nc2)C(C)(C)C1Oc1ccc(C#N)c(Cl)c1` (stereo not shown) [Example 176, N-((1r,3r)-3-(3-chloro-4-cyanophenoxy)-2,2,4,4-tetramethylcyclobutyl)-6-(2-((1-(3-(2,6-dioxopiperidin-3-yl)-4-oxo-3,4-dihydrobenzo[d][1,2,3]triazin-6-yl)azetidin-3-yl)methyl)-2,7-diazaspiro[3.5]nonan-7-yl)nicotinamide] was run?
Answer: 6%

Question: Which “Degradation (1 μM treated in LNCaP, % AR remaining)” value does the source give for `CC1(C)[C@H](NC(=O)c2ccc(N3CCC(CCN4CCN(c5ccc6nnn(C7CCC(=O)NC7=O)c(=O)c6c5)CC4)CC3)nc2)C(C)(C)[C@H]1Oc1ccc(C#N)c(Cl)c1` (stereo partly shown) [Example 198, N-((1r,3r)-3-(3-chloro-4-cyanophenoxy)-2,2,4,4-tetramethylcyclobutyl)-6-(4-(2-(4-(3-(2,6-dioxopiperidin-3-yl)-4-oxo-3,4-dihydrobenzo[d][1,2,3]triazin-6-yl)piperazin-1-yl)ethyl)piperidin-1-yl)nicotinamide] here?
Answer: 10%

Question: For `CC1(C)C(NC(=O)c2ccc(N3CCC(CN4CC5(CCN(c6ccc7nnn(C8CCC(=O)NC8=O)c(=O)c7c6)CC5)C4)CC3)nc2)C(C)(C)C1Oc1ccc(C#N)c(Cl)c1` (stereo not shown) [Example 170, N-((1r,3r)-3-(3-chloro-4-cyanophenoxy)-2,2,4,4-tetramethylcyclobutyl)-6-(4-((7-(3-(2,6-dioxopiperidin-3-yl)-4-oxo-3,4-dihydrobenzo[d][1,2,3]triazin-6-yl)-2,7-diazaspiro[3.5]nonan-2-yl)methyl)piperidin-1-yl)nicotinamide], which “Degradation (1 μM treated in LNCaP, % AR remaining)” value is on record?
Answer: 16%

Question: Which “Degradation (1 μM treated in LNCaP, % AR remaining)” value does the source give for `CC1(C)[C@H](NC(=O)c2ccc(N3CC[C@H](CN4CC5(C4)CN(c4ccc6c(=O)n(C7CCC(=O)NC7=O)nnc6c4)C5)C3)nc2)C(C)(C)[C@H]1Oc1ccc(C#N)c(Cl)c1` (stereo partly drawn) [Example 190, N-((1r,3R)-3-(3-chloro-4-cyanophenoxy)-2,2,4,4-tetramethylcyclobutyl)-6-((3R)-3-((6-(3-(2,6-dioxopiperidin-3-yl)-4-oxo-3,4-dihydrobenzo[d][1,2,3]triazin-7-yl)-2,6-diazaspiro[3.3]heptan-2-yl)methyl)pyrrolidin-1-yl)nicotinamide] here?
Answer: 11%

Question: How did the “Degradation (1 μM treated in LNCaP, % AR remaining)” value turn out when `CC1(C)C(NC(=O)c2ccc(C#CCN3CC4(CCN(c5ccc6c(=O)n(C7CCC(=O)NC7=O)nnc6c5)CC4)C3)nc2)C(C)(C)C1Oc1ccc(C#N)c(Cl)c1` (stereo not shown) [Example 179, N-((1r,3r)-3-(3-chloro-4-cyanophenoxy)-2,2,4,4-tetramethylcyclobutyl)-6-(3-(7-(3-(2,6-dioxopiperidin-3-yl)-4-oxo-3,4-dihydrobenzo[d][1,2,3]triazin-7-yl)-2,7-diazaspiro[3.5]nonan-2-yl)prop-1-yn-1-yl)nicotinamide] was run?
Answer: 8%

Question: For `CC1(C)C(NC(=O)c2ccc(C#CC3CCN(CC4CN(c5ccc6c(=O)n(C7CCC(=O)NC7=O)nnc6c5)C4)CC3)nc2)C(C)(C)C1Oc1ccc(C#N)c(Cl)c1` (stereo not shown) [Example 183, N-((1r,3r)-3-(3-chloro-4-cyanophenoxy)-2,2,4,4-tetramethylcyclobutyl)-6-((1-((1-(3-(2,6-dioxopiperidin-3-yl)-4-oxo-3,4-dihydrobenzo[d][1,2,3]triazin-7-yl)azetidin-3-yl)methyl)piperidin-4-yl)ethynyl)nicotinamide], which “Degradation (1 μM treated in LNCaP, % AR remaining)” value is on record?
Answer: 7.5%

Question: Which “Degradation (1 μM treated in LNCaP, % AR remaining)” value does the source give for `CC1(C)C(NC(=O)c2ccc(C#CCN3CCC4(CC3)CN(c3ccc5nnn(C6CCC(=O)NC6=O)c(=O)c5c3)C4)nc2)C(C)(C)C1Oc1ccc(C#N)c(Cl)c1` (stereo not shown) [Example 182, N-((1r,3r)-3-(3-chloro-4-cyanophenoxy)-2,2,4,4-tetramethylcyclobutyl)-6-(3-(2-(3-(2,6-dioxopiperidin-3-yl)-4-oxo-3,4-dihydrobenzo[d][1,2,3]triazin-6-yl)-2,7-diazaspiro[3.5]nonan-7-yl)prop-1-yn-1-yl)nicotinamide] here?
Answer: 16%

Question: `CC1(C)C(NC(=O)c2ccc(N3CCC(CN4CCN(c5ccc6nnn(C7CCC(=O)NC7=O)c(=O)c6c5)CC4)CC3)cc2)C(C)(C)C1Oc1ccc(C#N)c(Cl)c1` (stereo not shown) [Example 166, N-((1r,3r)-3-(3-chloro-4-cyanophenoxy)-2,2,4,4-tetramethylcyclobutyl)-4-(4-((4-(3-(2,6-dioxopiperidin-3-yl)-4-oxo-3,4-dihydrobenzo[d][1,2,3]triazin-6-yl)piperazin-1-yl)methyl)piperidin-1-yl)benzamide] was tested. Which “Degradation (1 μM treated in LNCaP, % AR remaining)” value did it give?
Answer: 13%
